# Target: T1, human HSD17β13 (stable HEK293T cell line overexpressing human HSD17β13) (Homo sapiens, UniProt Q7Z5P4)
# T1 construct: expressed in transfected cells
# T1 sequence (Q7Z5P4 20-300): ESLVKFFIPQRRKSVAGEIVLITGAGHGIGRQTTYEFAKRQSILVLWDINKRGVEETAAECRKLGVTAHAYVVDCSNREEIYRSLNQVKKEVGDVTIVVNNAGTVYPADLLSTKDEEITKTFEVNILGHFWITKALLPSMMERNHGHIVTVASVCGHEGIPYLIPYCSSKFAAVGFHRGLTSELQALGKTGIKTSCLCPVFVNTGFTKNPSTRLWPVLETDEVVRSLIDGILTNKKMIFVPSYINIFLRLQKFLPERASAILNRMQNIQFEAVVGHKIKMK
# Assay: HSD17β13 inhibitor cell-based screening assay (conversion of estradiol-d2 to estrone-d2 by RF-MS)
# Conditions: conversion of estradiol-d2 to estrone-d2 after 24 hours
# Description: The purpose of this cell-based assay is to determine the cellular efficacy (IC50) of HSD17β13 inhibitors in a stable HEK293 T cell line overexpressing human HSD17β13. The assay measures by Rapid Fire mass-spectrometry (RF-MS) the conversion of estradiol-d2 to estrone-d2. Cytotoxicity was also assessed via luminescent signal generated by the ATPlite viability assay reagent. To screen compounds for HSD17013 inhibition, black 384-well plates were seeded with 1000× concentration of compounds in a 9-point 1:3 dilution curve (final top concentration of 10 μM) as well as 1000× concentration of 17β-estradiol-d2 (5 μM final concentration) added to all wells. HEK293T cells stably overexpressing human HSD17013 and the parent HEK293T cell lines were then seeded in the plates on top of the compounds and substrate in MEM media containing 1% charcoal/dextran-treated FBS. Supernatant is collected and immediately frozen after 24 hours of incubation, and conversion of estradiol-d2 to estrone-d2 is measured at Pure Honey by RF-MS. The remaining media in the plate was removed from the wells and replaced with ATPlite viability assay reagent. Luminescent signal from the ATPlite reagent was measured on the Envision plate reader. 10 μL of 10 mM compounds stocks (1000×) dissolved in DMSO were pipetted into the appropriate wells on the 384 LDV plate (Labcyte; cat. no.: LP-0200) and the appropriate volumes of DMSO solvent were included onto an intermediate plate to further dilute the compound stocks to complete the 9-pt dose curve (final top concentration of 10 μM). 10 μL per well of 5 mM estradiol-d2 (1000×) (Cayman; item no.: 9002846) (5 μM final concentration) dissolved in DMSO was seeded into the appropriate number of wells on the same source plate as the compounds. The Echo 650 (Labcyte) was used for compound dilutions and dispensing both the compounds and the substrate onto a dry 384-well black assay plate (Falcon/Corning; cat. no.:353962). Afterwards, cells were immediately counted and seeded onto the plate. Cells were cultured for expansion in EMEM (ATCC; cat. no.: 30-2003)+10% FBS (Hyclone; cat. no.: SH3007003)+1×PenStrep (Gibco; cat. no.: 15140-122). All media for stable cell line overexpressing HSD17013 also included […] zeocin (Invitrogen; cat. no.: 46-0509) for selection. To prepare cells for seeding into the 384-well assay plate, cells were trypsinized for 3 minutes in the incubator. The Trypsin-EDTA (0.25%) (Gibco; cat. no.: 25200056) was neutralized with EMEM complete culture medium warmed to 37° C. Cells were then centrifugated at 300×g for 5 minutes at room temperature. The cell pellet was resuspended in phenol red-free MEM (Gibco; cat. no.: 51200-038)+1% charcoal/dextran-treated FBS (Hyclone; cat. no.: SH3006803) and 1×PenStrep warmed to 37° C. Cells were then counted using the TC20 automated cell-counter (Bio-Rad) and disposable duel chamber counting slides (Bio-Rad; cat. no.: 1450016) for a cell density of 1.5E5 cells/mL to then seed into the assay plate at 7.5E3 cells/well with 50 μL of media per well. Prior to the 24-hour time point, a solution of 1% formic acid (10×) (Honeywell; cat. no.: 94318) in MEM phenol red-free MEM+1% charcoal/dextran-treated FBS and 1×PenStrep was made. ATPlite luminescent ATP detection reagent (PerkinElmer; cat. no.: 6016739) was prepared according to the manufacturer's instructions. A new 384-well Falcon plate (collection plate) was seeded with 2 μL per well of 10× formic acid and then 18 μL of cell supernatant was added onto the formic acid, resulting in a 20 μL per well solution of 0.1% formic acid (1×) in supernatant. The plate of collected supernatant was immediately frozen on dry ice before being stored at −80° C. The collection plate was shipped to Momentum Biotechnologies for analysis. The remaining supernatant in the assay plate was discarded and 25 μL of ATPlite reagent was added to each well. […]
row,SMILES,IC50
1,"COc1ccc(-c2nc3sc4c(Br)c(O)ccc4c3c(=O)n2Cc2cnco2)c(C2CC2)c1 [Example 37, 8-bromo-2-(2-cyclopropyl-4-methoxyphenyl)-7-hydroxy-3-(oxazol-5-ylmethyl)benzo[4,5]thieno[2,3-d]pyrimidin-4(3H)-one]",1 to 100 µM
2,COc1ccc(-c2nc3sc4c(O)c(Cl)ccc4c3c(=O)n2Cc2cnco2)c(C2CCCC2)c1 [Example 121],0.1 to 0.5 µM
3,"COc1ccc(-c2nc3sc4c(O)c(Cl)ccc4c3c(=O)n2CC(=O)O)c(C2CC2)c1 [Example 46, 2-(7-chloro-2-(2-cyclopropyl-4-methoxyphenyl)-8-hydroxy-4-oxobenzo[4,5]thieno[2,3-d]pyrimidin-3(4H)-yl)acetic acid]",1 to 100 µM
4,COc1ccc(-c2nc3sc4c(O)c(Cl)ccc4c3c(=O)n2Cc2ccnc(OC)c2)c(C2CC2)c1 [Example 156],< 0.1 µM
5,CS(=O)(=O)Nc1ccc(-c2nc3sc4c(O)c(Cl)ccc4c3c(=O)n2Cc2cnc(C(F)(F)F)nc2)c(C2CC2)c1 [Example 185],< 0.1 µM
6,"COc1ccc(-c2nc3sc4c(S(=O)(=O)O)cccc4c3c(=O)n2Cc2cnco2)c(C2CC2)c1 [Example 12, 2-(2-cyclopropyl-4-methoxyphenyl)-3-(oxazol-5-ylmethyl)-4-oxo-3,4-dihydrobenzo[4,5]thieno[2,3-d]pyrimidine-8-sulfonic acid]",1 to 100 µM
7,O=c1c2c(nc(-c3cc(F)c(F)cc3C3CC3)n1Cc1cnccn1)sc1c(O)c(Cl)ccc12 [Example 207],< 0.1 µM
8,"COc1ccc(-c2nc3sc4c(O)c(C#N)ccc4c3c(=O)n2Cc2cnco2)c(C2CC2)c1 [Example 33, 2-(2-cyclopropyl-4-methoxyphenyl)-8-hydroxy-3-(oxazol-5-ylmethyl)-4-oxo-3,4-dihydrobenzo[4,5]thieno[2,3-d]pyrimidine-7-carbonitrile]",0.5 to 1 µM
9,COc1cc(C2CC2)c(-c2nc3sc4c(O)c(Cl)ccc4c3c(=O)n2Cc2cnco2)cc1C [Example 108],< 0.1 µM
10,O=c1c2c(nc(-c3cnc(C(F)(F)F)cc3C3CC3)n1Cc1cnco1)sc1c(O)c(Cl)ccc12 [Example 204],< 0.1 µM
11,Cn1ncc2cc(-c3nc4sc5c(O)c(Cl)ccc5c4c(=O)n3Cc3cnc(C(F)(F)F)nc3)c(C3CC3)cc21 [Example 182],< 0.1 µM
12,CCc1ncc(Cn2c(-c3cc(F)c(F)cc3C3CC3)nc3sc4c(O)c(Cl)ccc4c3c2=O)s1 [Example 205],< 0.1 µM
13,O=c1c2c(nc(-c3cnc(C(F)(F)F)cc3C3CC3)n1Cc1cnc(C(F)(F)F)nc1)sc1c(O)c(Cl)ccc12 [Example 178],< 0.1 µM
14,Cc1cc(C2CC2)c(-c2nc3sc4c(O)c(Cl)ccc4c3c(=O)n2Cc2cnco2)s1 [Example 94],< 0.1 µM
15,COc1ccc(-c2nc3sc4c(O)c(Cl)ccc4c3c(=O)n2Cc2cn(C(F)F)nn2)c(C2CC2)c1 [Example 129],< 0.1 µM

# Other lines, results leading:
row,IC50,SMILES
1,< 0.1 µM,COc1ccc(-c2nc3sc4c(O)c(Cl)ccc4c3c(=O)n2Cc2ccncc2)c(C2CC2)c1 [Example 151]
2,< 0.1 µM,COc1ccc(-c2nc3sc4c(O)c(Cl)ccc4c3c(=O)n2Cc2cncn2C)c(C2CC2)c1 [Example 193]
3,< 0.1 µM,O=c1c2c(nc(-c3cc(F)c(F)cc3C3CC3)n1Cc1cn[nH]n1)sc1c(O)c(Cl)ccc12 [Example 214]
4,< 0.1 µM,"COc1ccc(-c2nc3sc4c(O)c(Cl)ccc4c3c(=O)n2Cc2cnc(C3CC3)o2)c(C2CC2)c1 [Example 49, 7-chloro-2-(2-cyclopropyl-4-methoxyphenyl)-3-((2-cyclopropyloxazol-5-yl)methyl)-8-hydroxybenzo[4,5]thieno[2,3-d]pyrimidin-4(3H)-one]"
5,< 0.1 µM,O=c1c2c(nc(-c3cc(F)c(F)cc3C3CC3)n1Cc1cnn(C(F)(F)F)c1)sc1c(O)c(Cl)ccc12 [Example 211]
6,< 0.1 µM,O=c1c2c(nc(-c3cc(F)c(F)cc3C3CC3)n1Cc1nncs1)sc1c(O)c(Cl)ccc12 [Example 209]
7,< 0.1 µM,COc1ccc(-c2nc3sc4c(O)c(Cl)ccc4c3c(=O)n2Cc2nncs2)c(C2CC2)c1 [Example 202]
8,< 0.1 µM,CS(=O)(=O)c1ccc(-c2nc3sc4c(O)c(Cl)ccc4c3c(=O)n2Cc2cccnc2)c(C2CC2)c1 [Example 166]
9,< 0.1 µM,O=c1c2c(nc(-c3cc(F)c(F)cc3C3CC3)n1Cc1cnc(C(F)(F)F)nc1)sc1c(O)c(F)ccc12 [Example 183]
10,< 0.1 µM,O=c1c2c(nc(-c3ncc(F)cc3C3CC3)n1Cc1ccc(C(F)(F)F)nc1)sc1c(O)c(Cl)ccc12 [Example 102]
11,< 0.1 µM,Cn1cc2cc(C3CC3)c(-c3nc4sc5c(O)c(Cl)ccc5c4c(=O)n3Cc3cnco3)cc2n1 [Example 195]
12,< 0.1 µM,"COc1ccc(-c2nc3sc4c(O)c(Cl)ccc4c3c(=O)n2Cc2cnoc2)c(C2CC2)c1 [Example 57, 7-chloro-2-(2-cyclopropyl-4-methoxyphenyl)-8-hydroxy-3-(isoxazol-4-ylmethyl)benzo[4,5]thieno[2,3-d]pyrimidin-4(3H)-one]"
13,< 0.1 µM,"COc1ccc(-c2nc3sc4c(O)c(Cl)ccc4c3c(=O)n2Cc2cnc(C)nc2)c(C2CC2)c1 [Example 58, 7-chloro-2-(2-cyclopropyl-4-methoxyphenyl)-8-hydroxy-3-((2-methylpyrimidin-5-yl)methyl)benzo[4,5]thieno[2,3-d]pyrimidin-4(3H)-one]"
14,< 0.1 µM,"COc1ccc(-c2nc3sc4c(O)c(F)ccc4c3c(=O)n2Cc2cnco2)c(C2CC2)c1 [Example 56, 2-(2-cyclopropyl-4-methoxyphenyl)-7-fluoro-8-hydroxy-3-(oxazol-5-ylmethyl)benzo[4,5]thieno[2,3-d]pyrimidin-4(3H)-one]"
15,< 0.1 µM,"COc1ccc(-c2nc3sc4c(O)c(Cl)ccc4c3c(=O)n2Cc2cnc(C)o2)c(C2CC2)c1 [Example 59, 7-chloro-2-(2-cyclopropyl-4-methoxyphenyl)-8-hydroxy-3-((2-methyloxazol-5-yl)methyl)benzo[4,5]thieno[2,3-d]pyrimidin-4(3H)-one]"
16,< 0.1 µM,"COc1ccc(-c2nc3sc4c(O)c(Cl)ccc4c3c(=O)n2Cc2ccno2)c(C2CC2)c1 [Example 47, 7-chloro-2-(2-cyclopropyl-4-methoxyphenyl)-8-hydroxy-3-(isoxazol-5-ylmethyl)benzo[4,5]thieno[2,3-d]pyrimidin-4(3H)-one]"
17,< 0.1 µM,"CS(=O)(=O)c1cnc(-c2nc3sc4c(O)c(Cl)ccc4c3c(=O)n2Cc2cc(C(F)(F)F)no2)c(C2CC2)c1 [Example 112, 7-chloro-2-(3-cyclopropyl-5-(methylsulfonyl)pyridin-2-yl)-8-hydroxy-3-((3-(trifluoromethyl)isoxazol-5-yl)methyl)benzo[4,5]thieno[2,3-d]pyrimidin-4(3H)-one]"
18,< 0.1 µM,"O=c1c2c(nc(-c3cc(F)c(F)cc3C3CC3)n1Cc1cc(C(F)F)no1)sc1c(O)c(Cl)ccc12 [Example 65, 7-chloro-2-(2-cyclopropyl-4,5-difluorophenyl)-3-((3-(difluoromethyl)isoxazol-5-yl)methyl)-8-hydroxybenzo[4,5]thieno[2,3-d]pyrimidin-4(3H)-one]"
19,< 0.1 µM,O=c1c2c(nc(-c3c(C4CC4)ccc(C(F)(F)F)c3F)n1Cc1cnco1)sc1c(O)c(Cl)ccc12 [Example 134]

# Source: patent publication US20250154163A1, “Pyrimidinone-Containing 17-Beta-Hydroxysteroid Dehydrogenase Type 13 Inhibitors” (ENANTA PHARMACEUTICALS, INC., priority 2023, published 2025)
